Experimental data: patent US11458114B2, “Methods and compositions for enhancing synthesis secretion and transport of collagen to increase wound strength” (NORTH CELL PHARMACEUTICALS, INC., priority 2020, dated 2022)
“Also recorded” adds a separate entry of the source.

Columns and labels:
[1] = system: tumors; test: SRF given 1-2 hours prior to 3-bromopyruvate: tumor size; format: in vivo; settings: 3 bromopyruvate by itself
Experimental: To date most patients with cancer that are treated with radiation or cancer drugs show a partial reduction of tumor sizes, but in most cases the cancer remains and life expectances increases for a short period of time. This is the case for tumors. Five patients with various cancers were treated with 3-Bromopyruvate, an alkylating agent and a well-known inhibitor of energy metabolism. Results to date have been mixed. The problem with most cancer drugs is not only their toxicity to noncancerous tissue, but is their inability to completely eradicate the cancer. Cancer drugs cause hypoxia in normal noncancerous cells and they destroy tissue and their ability to heal. In mice studies conducted by others, they investigated the chemo preventive activity of 3-bromopyruvate. For the topical treatment the mice were treated with 10-30 mg/5 ml daily and treated for 8 weeks. […] 3-Bromopyruvate also dissociated hexokinase II from mitochondria, reduced hexokinase activity, and blocked energy metabolism in cancer cells, finally triggered cancer cell death and induced apoptosis through caspase-3, and PARP in human lung cancer cell line. The problem with 3-bromopyruvate was its toxicity to normal cells. The formula needed to protect noncancerous cells from 3-bromopyruvate and to enhance its effect on tumors, was the addition of SRF 1-2 hours prior to the administration of the 10 mg of 3-bromopyruvate. […]

[2] = system: virally infected cells; test: Viral plaque formation in virally infected cells; format: cell-based
Text: A commercial cold sore formula was purchased and the enumerated keto acids were placed into it to treat cold sores, both as a combination and singly as well. The commercial formulation by itself was utilized as a control. […] However, when SRF was placed in the cold sore formulation both with and without anti-oxidants and fatty acids, they heal the cold sore at a much faster rate 10-40% when tested on a cold sore sufferer The same experiment was done with virally infected cells and the combination of pyruvate and α-Ketoisovalerate with SRF decreased viral plaque formation by 50%. Viral plaques are a direct measure of viral numbers in infected cells. […] Other antivirals were evaluated with SRF to determine if the addition of SRF could reduce the skin irritation produced by Foscarnet sodium, Ribavirin, imiquimod, vidarabine, ganciclovir sodium, zidovudine, phenol, amantadine hydrochloride, and interferon. alpha.-n3. Even though some of these anti virals are not effective against a cold sore, they were evaluated on human cold sores to determine if SRF could reduce the irritation and enhance healing at the infection site. All formula with SRF healed cold sore two days faster than non-treatments and when this formula was combined with antiviral, like acyclovir or docosonal, the viral lesions healed 1.5 days faster than the commercial antiviral agent alone (Abreva or acyclovir). […]

[3] = system: HSV-1 or 2; test: Viral plaques in virally infected cells, HSV; format: cell-based
Text: Results: The primary end points were the levels of IL-8 and IL-1 after treatment with an immunostimulators, and SRF. […] IL-8 activates neutrophils to increase their numbers at the infected site. […] IL-1 increases inflammation and decreases healing times. […] The same experiment was done with virally infected cells and the SRF in combination with immunostimulators decreased viral plaque formed by HSV-1 or 2 by 70% and HPV-18 decreased by 82%. Viral plaques are a direct measure of viral numbers in infected cells.

[4] = system: wounds; test: Various drugs administered on wounds with or without sodium pyruvate or SRF: erythema rating and days to total re-epithelization; settings: for Drugs in commercial formula with SRF erythema / Drugs in commercial formula with sodium pyruvate only erythema / Drugs in commercial formula erythema: Rating 1-10, 1 most erythema, 10 no erythema; for Drugs in commercial formula erythema / Drug in commercial formula Days to healing: drug alone; for Drug in commercial formula with SRF. Days to healing / Drug in commercial formula with sodium pyruvate only. Days to healing / Drug in commercial formula Days to healing: days to total re-epithelization
Experimental: (§1) All previous studies using pyruvate to treat wounds or be used as an antioxidant used only the sodium salt form of pyruvic acid. The drug products that were tested in previous studies used 1-3% sodium pyruvate and other sodium salts of alpha keto acids by weight 1-3% concentrations in the lotions and triple antibiotic formulations. […]

[5] = system: cultured human dermal fibroblasts; test: Procollagen production in cultured human dermal fibroblasts (ELISA); format: cell-based
[6] = system: Doxorubicin treated wounded hairless rats; test: Rat wound strength healing study, doxorubicin-impaired wounds; format: in vivo; settings: for Days to healing: Doxorubicin treated wounded hairless rats, topical, 2% pyruvate salts, 1% L proline, 1% L-citrulline; for Percentage of wound breaking strength, by day 21: compared to non-wounded normal skin (100%)
Experimental: Wound breaking strength is a measurement of wound strength after injury compared to normal noninjuried skin. Fourteen groups of five rats each were studied. The SRF was administered topically daily. All groups were wounded at postoperative day 0, at which time Doxo was given to all Groups. All wounds were harvested at POD 21, and the mean wound breaking strength (WBS) of each group was obtained using an Instron Tensiometer.

[7] = system: HPV 16 or 18; test: Viral plaque reduction, patients with vaginal HPV treated with SRF cream containing imiquimod; settings: human, in vivo
Experimental: Percentage of Viral Plaque Reduction in Virally Infected Cells in Humans
A total of 15 patients with vaginal HPV 16 or 18 were treated with the SRF cream that also contained imiquimod. […] SRF reduces viral plaques in virally infected cells by 22-34%. Unexpectedly, the combination of SRF and Imiquimod produced the best results, by reducing the viral plaques over 92%, eliminating the virus from most of the infected cells. This tissue culture data along with data from humans, confirms that this combination worked.

[8] = system: laser wounds on the left arm; test: Pigmentation study on laser wounds; format: in vivo; settings: range 1-10, 10 totally normal
Text: Six laser wounds were made on the left arm. As an example, Mupirocin was placed on the first wound site, Mupirocin plus sodium pyruvate was placed on the second wound site and Mupirocin with SRF was placed on third wound site. The same process was repeated with another drug for sites 4-6. Every two days the bandages coated with the drugs were removed and replaced five times. Pigmentation measurements range from 1-10 with 10 being totally normal. The mupirocin drug formulas averaged a 4.9 for pigmentation. […]. The addition of the SRF averaged 7.45 a […] increase in pigmentation.

[9] = system: UVB-induced wrinkle formation; test: Topical alpha-ketoglutarate on UVB-induced wrinkle formation; format: in vivo, human; settings: 1% topical, 6 weeks
[10] = system: cold sores; test: Cold sore treatment, 15 subjects; settings: human, in vivo
[11] = system: wounded hairless Rats; test: Nitric oxide production and days to healing in wounded hairless rats; format: in vivo, rat; settings: topical
[12] = system: skin laser wounds in patients; test: Salts of pyruvate and SRF on skin laser wounds in patients: healing and irritation
Experimental: as §1

[13] = Amount of salts delivered in the pyruvate formulations compared to amounts in human blood; settings: amount delivered in the pyruvate formulation

## O=C(O)C(=O)CBr [3-bromopyruvate]
[1]
  reduction of tumor sizes: 60%

## Nc1nc2c(ncn2COCCO)c(=O)[nH]1 [Acyclovir]
[2]
  decrease of viral plaque formation: 60%
[3]
  decreased viral HSV plaques: 60%
[4]
  Drugs in commercial formula with SRF erythema: 7
  Drugs in commercial formula with sodium pyruvate only erythema: 5
  Drugs in commercial formula erythema: 4
  Drug in commercial formula with SRF. Days to healing: 10 days
  Drug in commercial formula with sodium pyruvate only. Days to healing: 13 days
  Drug in commercial formula Days to healing: 18 days

## O=C(O)[C@@H]1CCCN1C(=O)OCc1ccccc1 [Cbz-Pro, N-benzyloxycarbonyl-L-proline]
[5]; prolidase inhibitor added
  procollagen synthesis by alpha-ketoglutarate: inhibited procollagen synthesis

## COc1cccc2c1C(=O)c1c(O)c3c(c(O)c1C2=O)C[C@@](O)(C(=O)CO)C[C@@H]3O[C@H]1C[C@H](N)[C@H](O)[C@H](C)O1 [Doxorubicin]
[6]; Doxo 6 mg/kg i.v., POD 21
  impaired normal wound strength by: 40%

## CC(C)Cn1cnc2c(N)nc3ccccc3c21 [Imiquimod]
[7]
  reduction of viral plaques in virally infected cells: 25-40%

## C/C(=C\C(=O)OCCCCCCCCC(=O)O)C[C@@H]1OC[C@H](C[C@@H]2O[C@H]2[C@@H](C)[C@H](C)O)[C@@H](O)[C@H]1O [Mupirocin]
[4]
  Drugs in commercial formula with SRF erythema: 8
  Drugs in commercial formula with sodium pyruvate only erythema: 6
  Drugs in commercial formula erythema: 4
  Drug in commercial formula with SRF. Days to healing: 11 days
  Drug in commercial formula with sodium pyruvate only. Days to healing: 15 days
  Drug in commercial formula Days to healing: 20 days
[8]
  Pigmentation measurement: 4.9

## O=C(O)CCC(=O)C(=O)O [alpha-ketoglutarate]
[9]
  wrinkle formation: decreased wrinkle formation
[5]; 10 microM, compared to vehicle (dH(2)O)-treated control cells
  stimulated procollagen production: 25.6+/−4.6%
[5]; fibroblasts
  activities of prolidase: increased

## CCCCCCCCCCCCCCCCCCCCCCO [docosonal]
[10]
  cold sore efficacy, lesion healing: better efficacy with the addition of SRF

## Oc1ccccc1 [phenol]
[10]
  cold sore efficacy, lesion healing: did not work very well

## Calcium pyruvate
[11]
  % of NO levels against normal nonwounded skin: 22%
  Days to healing: 15 days
[6]
  Days to healing: 14 days
  Percentage of wound breaking strength, by day 21: 42%

## Magnesium pyruvate
[11]
  % of NO levels against normal nonwounded skin: 36%
  Days to healing: 13 days
[12]; human, in vivo
  wound healing results: slight increases in healing; also recorded: did not produce increases in healing over the base
[6]
  Days to healing: 14 days
  Percentage of wound breaking strength, by day 21: 44%

## zinc pyruvate
[13]
  delivered salt relative to blood levels: 840 × blood levels
[12]; same concentration of pyruvate for each salt, compared with sodium pyruvate formulations or base
  wound healing results: slight increases in healing; also recorded: did not produce increases in healing over the base
[12]; skin
  irritation or toxicity: irritating and possibly toxic
